Legend:
Assay type in all cases: in vivo
[1] = system: cat flea (Ctenocephalides felis); assay: Example 4: efficacy against cat flea infestations on dogs; details: 25 mg/kg oral, solid dosage form, Day 32
Protocol: The therapeutic (knockdown) and residual efficacy of 7, administered orally at a point dosages of 5 and 25 mg/kg bodyweight, was evaluated against adult American dog tick (D. variabilis) and cat flea (C. felis) infestations on dogs. Sixteen (16) male and female beagle dogs were allocated to one of four treatment groups: Untreated control group (n=4 dogs); 7, 5 mg/kg liquid oral dosage form (n=4 dogs); 7, 25 mg/kg liquid oral dosage form (n=4 dogs); and 7, 25 mg/kg solid oral dosage form. Liquid dosage forms were prepared by dissolving 7 in a solution of 55% polyethylene glycol-300, 35% propylene glycol and 10% water at 25 mg/ml. Solid oral dosage form was prepared by thoroughly mixing 7 with microcrystalline cellulose and croscarmellose sodium (50:47:3, w/w) and placing into size 00 gelatin capsules. On Day 0, all dogs were orally administered 7 at the prescribed point dosages. […]
The total number of live ticks or fleas (normal plus moribund classification) present on each dog was determined for each interval, and this number was transformed using the natural logarithm transformation plus one (Ln count+1); addition of one to each count served to adjust for counts that were zero. […] GM percent efficacy of treatments was calculated using the following formula: […]

[2] = system: brown dog tick (Rhipicephalus sanguineus); assay: Example 5: efficacy against brown dog tick infestations on dogs
Protocol: (§1) The therapeutic (knockdown) and residual efficacy of 7 and 8, each administered orally at a point dose of either 25 mg/kg or 50 mg/kg bodyweight, was evaluated against adult tick (Dermacentor variabilis and Rhipicephalus sanguineus) infestations on dogs. Twenty (20) male and female beagle dogs were allocated to one of five treatment groups, four (4) dogs per group: Untreated control; 7, 25 mg/kg; 7, 50 mg/kg; 8, 25 mg/kg; and 8, 50 mg/kg. On Day −1, all dogs were infested with approximately 50 unfed, adult D. variabilis ticks. On Day 0, dogs were orally administered gelatin capsules containing either 7 or 8 (50% technical active, 47% microcrystalline cellulose and 3% croscarmellose sodium, w/w) so as to achieve the desired point dosages. Ticks were counted and classified on all dogs, but not removed, on Day 1 (approximately 24 hours after treatment). On Day 2, approximately 48 hours after treatment, ticks were counted, classified and removed. Dogs were re-infested with the same number of D. variabilis ticks on Days 5, 12 and 19 with corresponding 48 hour post-infestation tick counts on Days 7, 14 and 21. Dogs were infested with approximately 50 unfed, adult brown dog ticks (Rhipicephalus sanguineus; approximately 50% male and 50% female) on Days 15 and 28, with corresponding 48 hour post-infestation tick counts on Days 17 and 30. GM percent efficacy of treatments against both tick species was calculated using the following formula: […]

[3] = system: adult American dog tick (Dermacentor variabilis); assay: Example 5: efficacy against adult American dog tick infestations on dogs
Protocol: as §1

[4] = system: adult cat flea (Ctenocephalides felis); assay: Example 7: therapeutic efficacy and speed of kill against adult cat flea infestations on dogs; details: 25 mg/kg oral
Protocol: The therapeutic efficacy and speed of kill of 7, administered orally at a point dose of 25 mg/kg bodyweight, was evaluated against adult cat flea (Ctenocephalides felis) infestations on dogs. Twelve (12) male and female beagle dogs were allocated to one of four treatment groups (n=3 dogs per group). Group A was untreated, negative control; groups B, C and D received 7. On Day −1, all dogs were infested with approximately 100 unfed, adult fleas (approximately 50% male and 50% female). On Day 0, dogs in groups B, C and D were orally administered gelatin capsules containing 7, at a point dose of 25 mg/kg (50% technical active, 47% microcrystalline cellulose and 3% croscarmellose sodium, w/w). At eight (8) hours post-treatment, fleas were counted and removed from dogs in group B; at twelve (12) hours post-treatment, fleas were counted and removed from dogs in group C; and at twenty-four (24) hours post-treatment, fleas were counted and removed from dogs in groups A and D. GM percent efficacy of treatments against fleas was calculated using the following formula: […]

Compound: CC1(C)OB(O)c2ccc(C3=NOC(c4cc(Cl)c(Cl)c(Cl)c4)(C(F)(F)F)C3)cc21 (racemic) [Compound 7, 3,3-Dimethyl-5-(5-(3,4,5-trichlorophenyl)-5-(trifluoromethyl)-4,5-dihydroisoxazol-3-yl)benzo[c][1,2]oxaborol-1(3H)-ol]
- Geometric mean group live flea count [1]: 3.9
- % efficacy ([2]; 25 mg/kg oral capsule, Day 17): (75.0) %
- Geometric mean group live tick count ([2]; 25 mg/kg oral capsule, Day 17): 8.0
- Geometric mean group live tick count ([2]; 50 mg/kg oral capsule, Day 17): 1.6
- % efficacy ([2]; 50 mg/kg oral capsule, Day 30): (63.9) %
- Geometric mean group live tick count ([2]; 50 mg/kg oral capsule, Day 30): 13.4
- % efficacy ([3]; 25 mg/kg oral capsule, Day 1): (90.4) %
- Geometric mean group live tick count ([3]; 25 mg/kg oral capsule, Day 1): 1.0
- Geometric mean group live tick count ([3]; 25 mg/kg oral capsule, Day 2): 0.0
- Geometric mean group live tick count ([3]; 25 mg/kg oral capsule, Day 7): 0.7
- % efficacy ([3]; 25 mg/kg oral capsule, Day 14): (67.6) %
- Geometric mean group live tick count ([3]; 25 mg/kg oral capsule, Day 14): 5.3
- % efficacy ([3]; 25 mg/kg oral capsule, Day 21): (71.1) %
- Geometric mean group live tick count ([3]; 25 mg/kg oral capsule, Day 21): 4.7
- % efficacy ([3]; 50 mg/kg oral capsule, Day 1): (83.0) %
- Geometric mean group live tick count ([3]; 50 mg/kg oral capsule, Day 1): 1.8
- Geometric mean group live tick count ([3]; 50 mg/kg oral capsule, Day 2): 0.0
- Geometric mean group live tick count ([3]; 50 mg/kg oral capsule, Day 7): 0.4
- % efficacy ([3]; 50 mg/kg oral capsule, Day 14): (88.5) %
- Geometric mean group live tick count ([3]; 50 mg/kg oral capsule, Day 14): 1.9
- % efficacy ([3]; 50 mg/kg oral capsule, Day 21): (80.1) %
- Geometric mean group live tick count ([3]; 50 mg/kg oral capsule, Day 21): 3.2
- % efficacy ([4]; 8 hours post-treatment): (11.8) %
- Geometric mean group live flea count ([4]; 8 hours post-treatment): 75.6
- Geometric mean group live flea count ([4]; 12 hours post-treatment): 0.3
- Geometric mean group live flea count ([4]; 24 hours post-treatment): 0.0

Source: patent US9156860B2, “Boron-containing small molecules” (Anacor Pharmaceuticals, Inc., priority 2011, dated 2015)
